Residues, ends and D or L forms follow the SMILES beside them. No end group written: not given here.
Tests used:
Assay type in all cases: binding
[1] = target: T1, VCAM1 (Homo sapiens, UniProt P19320); test: Recombinant phage ELISA specificity to VCAM1; settings: recombinant phage ELISA against several proteins
T1 construct: made in house; host or cells: E. coli AD494 (pET32a)
T1 sequence (P19320 25-739): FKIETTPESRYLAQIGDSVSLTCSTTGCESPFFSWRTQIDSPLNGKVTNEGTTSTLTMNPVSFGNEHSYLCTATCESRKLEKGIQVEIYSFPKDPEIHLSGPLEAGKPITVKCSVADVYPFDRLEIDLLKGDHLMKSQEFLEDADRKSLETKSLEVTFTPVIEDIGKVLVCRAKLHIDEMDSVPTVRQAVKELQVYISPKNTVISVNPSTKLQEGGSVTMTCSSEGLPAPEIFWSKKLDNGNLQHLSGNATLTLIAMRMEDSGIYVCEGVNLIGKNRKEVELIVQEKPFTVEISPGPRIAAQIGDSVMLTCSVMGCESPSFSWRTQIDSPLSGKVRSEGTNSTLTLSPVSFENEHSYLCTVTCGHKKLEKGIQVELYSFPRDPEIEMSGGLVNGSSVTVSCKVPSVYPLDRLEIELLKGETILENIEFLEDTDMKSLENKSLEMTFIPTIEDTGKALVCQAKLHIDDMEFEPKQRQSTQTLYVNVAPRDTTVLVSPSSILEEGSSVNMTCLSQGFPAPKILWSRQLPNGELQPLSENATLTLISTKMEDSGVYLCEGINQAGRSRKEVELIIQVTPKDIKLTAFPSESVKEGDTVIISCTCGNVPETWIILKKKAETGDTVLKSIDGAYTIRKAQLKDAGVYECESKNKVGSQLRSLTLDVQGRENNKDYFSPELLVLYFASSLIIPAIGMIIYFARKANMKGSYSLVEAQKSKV
Experimental: (§1) Specificity of recombinant phages to each protein was carried out using ELISA. Each protein (5 μg/ml) was seeded into wells (50 μl per well) in a 96-well ELISA plate and next day, all wells were washed with 0.1% PBST (Tween-20) three times, and blocked at room temperature for 2 hrs using 2% skim milk. Then, the solution was completely removed and the plate was washed with 0.1% PBST three times. Recombinant phages containing the peptide of the present invention were thoroughly mixed with 2% BSA. Each mixture (100 μl) was divided into wells coated with 10 proteins and kept to stand at 27° C. for 2 hrs. After washing with 0.1% PBST 5 times, HRP-conjugated anti-M13 antibodies (1:1,000 dilution; GE Healthcare) were added to each well and incubated at 27° C. for 1 hr. After washing with 0.1% PBST 5 times, 100 μl TMB was divided into each well to induce colorimetric reaction, followed by stopping the reaction adding 100 μl of 1 M HCl. The absorbance was measured at 450 nm.

[2] = target: T2, HSA (Homo sapiens, UniProt P02768); test: Recombinant phage ELISA specificity to HSA; settings: recombinant phage ELISA against several proteins
T2 construct: purchased Genetex Inc. (Irvine)
T2 sequence (P02768 25-609): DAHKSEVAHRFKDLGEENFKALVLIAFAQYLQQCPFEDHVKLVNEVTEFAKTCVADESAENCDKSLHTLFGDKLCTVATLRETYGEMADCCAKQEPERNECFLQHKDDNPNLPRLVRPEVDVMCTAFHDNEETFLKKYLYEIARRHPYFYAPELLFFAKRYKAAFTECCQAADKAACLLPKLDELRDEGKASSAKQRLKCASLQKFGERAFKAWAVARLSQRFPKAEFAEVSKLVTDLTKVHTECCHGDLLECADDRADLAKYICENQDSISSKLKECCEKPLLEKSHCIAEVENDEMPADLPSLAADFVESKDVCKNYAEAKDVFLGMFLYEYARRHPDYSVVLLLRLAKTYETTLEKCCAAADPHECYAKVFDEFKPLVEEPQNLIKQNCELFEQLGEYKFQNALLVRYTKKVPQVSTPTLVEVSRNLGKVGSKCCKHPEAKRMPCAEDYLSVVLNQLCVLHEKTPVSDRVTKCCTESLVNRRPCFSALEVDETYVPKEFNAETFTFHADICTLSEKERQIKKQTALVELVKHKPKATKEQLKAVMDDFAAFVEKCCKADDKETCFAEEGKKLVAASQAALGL
Experimental: as §1

[3] = target: T3, nAchR (Nicotinic acetylcholine receptor) (Mus musculus, UniProt P04756); test: SPR (Biacore) affinity to nAchR peptide fragment
T3 construct: Biotin-[…]; (32 mer), a peptide fragment of nAchR; purchased Anigen Inc. (Korea, Kwangju), custom synthesis
T3 sequence (P04756 193-224 limits assumed): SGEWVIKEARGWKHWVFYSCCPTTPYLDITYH
Experimental: Affinity was measured using BIAcore X instrument (Biacore AB, Uppsala, Sweden). ED-B and nAchR were immobilized on streptavidin (SA) chip (Biacore) by injecting 2,000 RU biotinylated-EDB. VEGF was immobilized on CM5 chip (Biacore) using EDC/NHS. PBS (pH 7.4) was used as a running buffer.

[4] = target: T4, nAchR (Mus musculus, UniProt P04756); test: Recombinant phage ELISA specificity to nAchR; settings: recombinant phage ELISA against several proteins
T4 construct: Biotin-[…]; (32 mer), a peptide fragment of nAchR; purchased Anigen Inc. (Korea, Kwangju), custom synthesis
T4 sequence (P04756 193-224 limits assumed): as above
Experimental: as §1

[5] = target: T5, VEGF (Homo sapiens, UniProt P15692); test: Recombinant phage ELISA specificity to VEGF; settings: recombinant phage ELISA against several proteins
T5 construct: Trx (thioredoxin, pET32a) (N, cleaved yes); made in house; host or cells: E. coli AD494 (pET32a)
T5 sequence (P15692 27-147 isoform P15692-9 limits assumed): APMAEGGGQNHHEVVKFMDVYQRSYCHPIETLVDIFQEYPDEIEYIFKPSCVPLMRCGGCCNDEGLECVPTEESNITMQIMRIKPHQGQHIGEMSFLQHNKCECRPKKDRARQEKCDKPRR
Experimental: as §1

[6] = target: T6, fibronectin ED-B (Homo sapiens, UniProt P02751); test: Recombinant phage ELISA specificity to fibronectin ED-B; settings: 450 nm, 10 proteins
T6 construct: After transformation of pET28b vector carrying fibronectin ED-B into BL21 cells; made in house; host or cells: E. coli BL21 (pET28b)
T6 sequence (P02751 1271-1359 limits assumed): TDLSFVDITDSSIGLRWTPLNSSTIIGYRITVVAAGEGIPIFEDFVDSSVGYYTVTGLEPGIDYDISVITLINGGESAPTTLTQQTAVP
Experimental: as §1

[7] = target: T7, STAT3 (Homo sapiens, UniProt P40763); test: Phage ELISA to STAT3 (clone screening and specificity); settings: recombinant phage ELISA
T7 construct: endogenous in cells; host or cells: DU145
T7 sequence (P40763 whole entry, species assumed): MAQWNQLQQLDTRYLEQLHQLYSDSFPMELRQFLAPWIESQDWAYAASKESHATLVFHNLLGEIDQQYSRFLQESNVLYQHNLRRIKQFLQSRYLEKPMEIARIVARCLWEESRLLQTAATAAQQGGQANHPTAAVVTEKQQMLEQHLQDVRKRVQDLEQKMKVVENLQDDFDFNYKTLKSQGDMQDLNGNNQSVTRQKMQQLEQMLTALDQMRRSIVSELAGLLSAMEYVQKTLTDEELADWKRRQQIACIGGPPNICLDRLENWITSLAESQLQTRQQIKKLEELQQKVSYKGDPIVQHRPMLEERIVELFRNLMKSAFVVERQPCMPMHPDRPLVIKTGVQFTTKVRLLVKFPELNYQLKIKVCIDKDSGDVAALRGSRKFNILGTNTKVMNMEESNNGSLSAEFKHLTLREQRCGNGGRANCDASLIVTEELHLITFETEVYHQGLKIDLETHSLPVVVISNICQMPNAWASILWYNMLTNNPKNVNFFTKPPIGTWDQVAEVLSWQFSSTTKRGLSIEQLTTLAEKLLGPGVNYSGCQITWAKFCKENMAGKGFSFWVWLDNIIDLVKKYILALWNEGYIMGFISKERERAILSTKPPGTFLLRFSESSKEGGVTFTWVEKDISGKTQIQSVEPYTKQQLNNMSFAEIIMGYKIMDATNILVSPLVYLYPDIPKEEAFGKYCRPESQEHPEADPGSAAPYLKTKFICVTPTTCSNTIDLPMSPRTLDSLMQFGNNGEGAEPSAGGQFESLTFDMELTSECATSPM
Experimental: XL1-BLUE cells were transformed with phages recovered from the 4th biopanning step having the highest ratio of output phage to input phage, and spread in plate to produce 100-200 of plaques. Using a sterile tip, 60 plaques were inoculated in 2 ml LB-ampicillin (50 μg/ml) media and cultured at 37° C. for 5 hr with vigorous shaking. The transformed cells were infected with Ex helper phages (5×10^9 pfu/ml; OD=0.8-1.0) and cultured at 37° C. for 1 hr with shaking at 200 rpm. After removing the supernatant by centrifuging at 1,000×g for 10 min, the precipitated cells were resuspended in 1 ml LB liquid media supplemented with 50 μg/ml ampicillin and 25 μg/ml kanamycin, and cultured at 30° C. overnight with shaking at 200 rpm. The supernatant was collected by centrifuging at 10,000×g for 20 min at 4° C. and mixed with 2% skim milk, which is used in detection of phage peptides.
STAT3 (10 μg/ml), BSA (10 μg/ml) and streptavidin (10 μg/ml) each was added to 30 wells (50 μl per well) in a 96-well ELISA plate and then kept to stand at 4° C. overnight. Next day, all wells were washed with 0.1% PBST three times, and blocked at room temperature for 2 hrs using 2% skim milk diluted with PBS. Then, the solution was removed and the plate was washed with 0.1% PBST three times. […] The absorbance was measured at 450 nm to select phages which had the absorbance above 20-fold higher than BSA. […]

[8] = target: T8, MyD88 (Homo sapiens, UniProt Q99836); test: Recombinant phage ELISA specificity to MyD88; settings: recombinant phage ELISA against several proteins
T8 construct: purchased Santa Cruz Biotechnology sc-4540 WB
T8 sequence (Q99836 whole entry): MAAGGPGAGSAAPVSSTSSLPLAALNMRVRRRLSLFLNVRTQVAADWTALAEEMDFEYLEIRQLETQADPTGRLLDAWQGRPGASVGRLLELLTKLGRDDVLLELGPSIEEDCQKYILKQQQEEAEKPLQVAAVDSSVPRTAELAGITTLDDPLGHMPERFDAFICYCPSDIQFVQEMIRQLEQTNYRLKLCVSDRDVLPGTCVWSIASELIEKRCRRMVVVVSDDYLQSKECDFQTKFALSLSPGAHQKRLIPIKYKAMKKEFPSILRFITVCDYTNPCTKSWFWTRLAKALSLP
Experimental: as §1
The MyD88-specific bipodal-peptide binders were analyzed to have target specificity to MyD88 by the ELISA (FIG. 6f).

Compound: CC[C@H](C)[C@H](NC(=O)[C@@H]1CCCN1C(=O)[C@H](CS)NC(=O)[C@@H](NC(=O)[C@H](CO)NC(=O)[C@@H]1CCCN1C(=O)CNC(=O)[C@H](CCCCN)NC(=O)[C@H](Cc1c[nH]c2ccccc12)NC(=O)[C@@H](NC(=O)[C@H](Cc1c[nH]c2ccccc12)NC(=O)[C@H](CCCCN)NC(=O)CNC(=O)[C@H](CC(N)=O)NC(=O)[C@H](CCC(=O)O)NC(=O)[C@H](Cc1c[nH]c2ccccc12)NC(=O)[C@@H](NC(=O)[C@H](Cc1c[nH]c2ccccc12)NC(=O)[C@H](CO)NC(=O)CNC(=O)[C@@H](NC(=O)[C@H](CS)NC(=O)[C@H](CC(=O)O)NC(=O)[C@H](CCCNC(=N)N)NC(=O)[C@H](C)NC(=O)[C@@H](N)CCC(N)=O)[C@@H](C)O)[C@@H](C)O)[C@@H](C)O)[C@@H](C)CC)C(=O)O [Peptide 1 (Table 3c)] (H-QARDCTGSWTWENGKWTWKGPSICPI-OH; N-terminus and C-terminus assumed)
- specificity for VCAM1 [1]: has specificity

Compound: AASPYKGSWTWENGKWTWKGGWRMKM [Peptide 1 (Table 3e)]
- specificity for HSA [2]: has specificity

Compound: EASFWLGSWTWENGKWTWKGKGTLNR [Peptide 1 (Table 3d)]
- Kd [3]: 73 nM
- specificity for nAchR [4]: has specificity

Compound: HANFFQGSWTWENGKWTWKGWKYNQS [Peptide 1 (Table 3b)]
- specificity for VEGF [5]: has specificity

Compound: HCSSAVGSWTWENGKWTWKGIIRLEQ [2 (Table 3a)]
- absorbance for ED-B higher than that of other proteins [6]: above 30 fold

Compound: HGFQWP GSWTWENGKWTWKG AYQFLK (GSWTWENGKWTWKGAYQFLK) [Peptide 2 (STAT3)]
- specificity to STAT3 compared to other proteins [7]: specificity to STAT3

Compound: HSHAFYGSWTWENGKWTWKGNPGWWT [Peptide 1 (Table 3f)]
- specificity for MyD88 [8]: has specificity

Compound: QAYYIPGSWTWENGKWTWKGLWGPEF [Peptide 1 (STAT3), QAYYIP GSWTWENGKWTWKG LWGPEF]
- specificity to STAT3 compared to other proteins [7]: specificity to STAT3

Source: patent US20120309934A1, “INTRACELLUAR TARGETING BIPODAL PEPTIDE BINDER” (priority 2009, published 2012)
